Data taken from patent US8324188B2, “Combinations of ET-18-O-CH3and anti-cancer agents for the treatment of cancer” (priority 2006, dated 2012).
pEC50, pIC50: −log10 of the molar value.

System: U87MG
Assay: WST-1 proliferation assay, U87MG
Type: cell-based, human
Description: AP-121 was prepared as 5 mM stock solution in distilled sterile water, Temozolomide (TMZ) (Haorui Pharma-Chem, Inc., Edison, N.J.) was prepared as 100 mM in sterile filtrated DMSO; Adriamycin (ADR) (Sigma) was prepared as 1 mM in distilled sterile water; Camptothecin (CTP) (Sigma) was prepared as 10 mM solution in 0.1 N NaOH; Tarceva (Proteinkinase, Germany) was prepared as 5 mM solution in sterile DMSO. All compound stocks were kept at −20° C. 2000 cells were plated in each well of 96-well flat bottom plates, and incubated overnight at 37 °C in 5% CO2. The growth of plated cells was measured by adding […] of WST-1 reagent (Roche Applied Sciences, Germany) to 3 control wells and measuring the absorbance at 650 nm and at 450 nm, respectively, with a SpectraMax250 plate reader. […] After this incubation, VVST-1 reagent was added to the wells and OD650-OD450 values were calculated as before. six wells were assayed for each conditions and standard deviation was determined: all experiments were performed at least three times independently. […] Six different concentrations of each drug were used in combinations index measurements and compared to +/− cells, and compared to controls without compound.

- pIC50 (Homo sapiens, U-87 MG): 5.07
- pEC50 (Homo sapiens, U-87 MG, single agent or compound mixture as labelled (arrays A2, A1), read-out: ED50 (the source's name)): 5.17
SMILES: CCCCCCCCCCCCCCCCCCOCC(COP(=O)([O-])OCC[N+](C)(C)C)OC (racemic) [AP-121, 1-O-octadecyl-2-O-methyl-glycero-3-phosphocholine]
- normalized ED50 (arrays B2, B1) (ratio to the largest value): 1
